One series deals with HDAC-1 protein. In words: Western blotting analysis of HDAC-1 protein expression in transfected T24 cells. The format is cell-based, human. The note with it: FIG. 4; second generation oligonucleotides, T24 cells transfected twice with 50 nM, lysates 24 h after second transfection. The method, then: (§1) To do this, T24 cells were transfected with oligonucleotide using lipofectin as described above. Twenty-four hours later, the cells were lysed according to standard procedures. The whole cell extracts (50 μg) were resolved on 7-15% gradient SDS/PAGE, transferred to PVDF membrane (Amersham, Arlington Heights, Ill.), and subjected to Western blotting analysis with rabbit polyclonal HDAC1- and HDAC-2 specific antibodies (1:500, Santa Cruz Biotech., Santa Cruz, Calif.) were used. Detection was accomplished with a secondary anti-rabbit IgG-HR peroxidase antibody and an enhanced chemiluminescence detection kit (Amersham) accordingly to manufacturer's instructions.
T24 cells were transfected twice as described above with 50 nM oligonucleotide. Cell lysates were prepared twenty-four hours following the second transfection, resolved on 7-15% gradient SDS-PAGE, and transferred to PVDF membrane. The PVDF membrane blot was first blotted with anti-HDAC-1 antibody. Following detection with horseradish peroxidase-labelled secondary antibody and enhanced chemiluminescence, the blot was stripped, and re-probed with anti-HDAC-2 antibody. Following detection, the blot was stripped for a second time and re-probed with an actin-specific antibody to verify equal protein loading in the lanes.

The next series concerns HDAC-2 protein. Description: Western blotting analysis of HDAC-2 protein expression in transfected T24 cells. The note with it: FIG. 3; 50 nM second generation oligonucleotide, T24 cells transfected twice, 48 hours after the first transfection. In kind it is cell-based, human. How it is done:
as §1
Twenty-four hours later, the cells were transfected a second time with the same amount of the same oligonucleotide. Twenty-four hours after this (i.e., 48 hours after the first transfection), cellular proteins were prepared, resolved on 7-15% gradient SDS-PAGE, and subjected to Western blotting analysis as described in Example 1 with rabbit polyclonal HDAC2 specific antibody (1:500, Santa Cruz Biotech). Following blotting with the secondary anti-rabbit IgG-HR peroxidase antibody and visualization with the enhanced chemiluminescence detection kit (Amersham), the blot was stripped and re-probed with an antibody specific to actin to verify equal loading of all wells (data not shown). […]
In general terms: Immunoblotting shows a protein as a band on a membrane.

The test system of series [1] is cell cycle progression in cells. The note with it: literature reports; cited from earlier work.
The subject of a further series is histone deacetylase. The note with it: Yoshida et al.; cited from earlier work.

Where a SMILES comes first, the peptide text is derived from it. [ ]: non-standard residue; d: D form. Aoe = N[C@@H](CCCCCC(=O)[C@@H]1CO1)C(=O)O; d = 2'-deoxy (DNA); m = 2'-O-methyl

For “5′-CAAUCGTCAGAGACTCCGAA-3′ (antisense CAAUCGTCAGAGACTCCGAA; sugars from the 5' end m4 d12 m4, backbone and methylation of C not given here) [MG2609, mismatch control oligonucleotide of HDAC-1 (MG2608)]”, the “inhibition of HDAC-1 protein expression” value in the series on HDAC-1 protein was “failed to inhibit”.
Regarding “5′-CUCCTTGACTGTACGCCAUG-3′ [MG2636]”, the “inhibition of HDAC-2 protein expression” value with HDAC-2 protein was “able to inhibit HDAC-2 protein expression”.
For the compound `C/C=C1\NC(=O)[C@H]2CSSCC/C=C/[C@H](CC(=O)N[C@H](C(C)C)C(=O)N2)OC(=O)[C@H](C(C)C)NC1=O` [FR901228], the cell cycle progression result in series [1] is “inhibit cell cycle progression in cells”.
On to `CC(/C=C/C(=O)NO)=C\[C@@H](C)C(=O)c1ccc(N(C)C)cc1` [Trichostatin A], for which the cell cycle progression entry in series [1] is “arrest cell cycle progression in cells in the G1 and G2 phases”. In the series with histone deacetylase, the “inhibition of histone deacetylase activity” value was “inhibit histone deacetylase activity”.
For `O=C(CCCCCCC(=O)Nc1ccccc1)NO` [suberoylanilide hydroxamic acid], the cell cycle progression entry in series [1] is “inhibit cell cycle progression in cells”.
As to `O=C1N[C@@H](Cc2ccccc2)C(=O)N2CCC[C@@H]2C(=O)N[C@@H](CCCCCC(=O)[C@@H]2CO2)C(=O)N[C@H]1Cc1ccccc1` [trapoxin] (cyclo(FF[dP][Aoe])), the cell cycle progression entry in series [1] is recorded as “inhibit cell cycle progression in cells”.
For `CC(/C=C/C(=O)NO[C@@H]1O[C@H](CO)[C@@H](O)[C@H](O)[C@H]1O)=C\[C@@H](C)C(=O)c1ccc(N(C)C)cc1` [trichostatin C], the cell cycle progression result in series [1] was “inhibit cell cycle progression in cells”.
For depudecin, the cell cycle progression entry in series [1] was “inhibit cell cycle progression in cells”.

The values above are taken from patent US20070105808A1, “Inhibition of histone deacetylase” (MethylGene, Inc., priority 1999, published 2007).
